Entries after “also recorded” stand apart in the source; their conditions may differ.
Assays:
Assay type in all cases: cell-based
[1] = test system: PLCγ2; assay: PLCγ expression in human preadipocytes (indirect immunofluorescence, Western blot); settings: grown to confluence in SCM + FGF-1 vs SCM alone; immunofluorescence and Western blot
Protocol: Expression of phospholipase Cγ2 (PLCγ2) protein is analyzed using Western blotting with immunofluorescent labeling procedures using a monoclonal anti-PLCγ2 antibody (Santa Cruz sc-5283).
Human preadipocytes were cultured in SCM+/−FGF-1 in 24-well plates. PLCγ expression was examined by indirect immuno-fluorescence. Non-immune primary and secondary antibody-only controls gave no staining.

[2] = test system: subcutaneous human preadipocytes gene expression; assay: Microarray analysis of human preadipocyte gene expression (Affymetrix); settings: confluent preadipocytes in SCM+FGF1 vs SCM; change of at least 50% (CV<5%)
Protocol: Total RNA was isolated from confluent subcutaneous human preadipocytes isolated and grown in either SCM (control) or SCM+FGF1. cRNA was prepared and hybridized to chips and subsequently analyzed using the Affymetrix® system. Each treatment was represented by duplicate samples and two independent experiments were performed. Gene expression was considered to be influenced by FGF-1 if expression was consistently (CV<5%) increased or reduced by at least 50%.

[3] = test system: human omental and subcutaneous preadipocytes; assay: Differentiation of human preadipocytes in serum-containing medium (cytoplasmic lipid accumulation); settings: subcultured in SCM+FGF-1, differentiated in SCM plus insulin and (days 1-3) dexamethasone and rosiglitazone; vs SCM alone
Description: A standard requirement of human preadipocyte differentiation in vitro is the obligatory withdrawal of serum. This contrasts with the murine adipocyte cell lines (e.g., 3T3-L1) that have high differentiation potential in SCM. It is assumed that the culture system developed for the human cells either induces down-regulation of factors necessary for differentiation, or promotes the expression of anti-differentiative factors (or both). In these experiments human omental and subcutaneous preadipocytes were isolated and subcultured in the presence of FGF-1. Cells were then differentiated in SCM plus insulin and (days 1-3) dexamethasone and rosiglitazone.

[4] = test system: human preadipocytes (omental and subcutaneous); assay: Preadipocyte differentiation assessed by G3PDH activity; settings: for adipogenic effect of FGF present during replication and/or differentiation (combination treatments): SCM +/- FGF during replication, SFM+rosiglitazone +/- FGF during differentiation, G3PDH activity; for preadipocyte differentiation / adipogenic effect (summary statements): human preadipocytes cultured with the growth factor; for differentiation of human preadipocytes after exposure to growth factor or MVEC-conditioned medium during subculture: subcultured up to 2 months with growth factor or EC-DMEM, differentiated in serum-free medium including 0.10M Rosiglitazone, G3PDH assay at day 21
Protocol: Activity is assessed as previously described (Adams et al. J Clin Invest 100: 3149-53 1998) (Hutley et al in Primary Mesenchymal Cells 1st ed. Kluwer Academic 5: 173-87 2001).
For differentiation experiments, preadipocytes were isolated and subcultured in endothelial cell-conditioned medium (EC-DMEM) or in the presence of growth factor for up to 2 months and then allowed to reach confluence in 6-well plates. Cells were then differentiated in serum-free, chemically modified differentiation medium including 0.10M Rosiglitazone. Differentiation was assessed at day 21 using a standard G3PDH assay.
Human omental and subcutaneous preadipocytes were isolated and subcultured in SCM in the presence and absence of FGF-1 or FGF-2. Upon reaching confluence, the cells were differentiated in standard chemically modified SFM+rosiglitazone in the presence and absence of FGF-1 or FGF-2. Differentiation was assessed by G3PDH activity. […] Presence throughout both processes was additive.

[5] = test system: human preadipocytes (subcutaneous and omental); assay: Preadipocyte proliferation assay (formazan/MTS colorimetric assay); settings: for proliferation of human preadipocytes in response to growth factor: SCM + growth factors at 1 ng/mL for 48 hrs, relative to SCM control, MTS assay
Protocol: Subcutaneous and omental preadipocytes and human skin fibroblasts are plated separately at about 1×10^3 cells/well (subconfluent) in 96-well plates in DMEM/Ham's F12 1:1 plus 10% FCS (PA growth medium) and allowed to adhere at 37° C., 5% CO2 for 16-20 hrs. The medium is then changed to EC growth medium which is conditioned (see above) by exposure to either confluent subcutaneous or omental MVEC, human skin fibroblasts (HSF), or wells containing no cells (blank control) (each treatment is done in quadruplicate). In separate experiments subcutaneous and omental PAs are plated as above and subsequently treated with either S MVEC, O MVEC, human dermal EC(CADMEC) conditioned media, fresh EC growth medium, or blank control. After 48 hrs, preadipocyte cell number is assessed using a formazan colorimetric assay (Promega). The water soluble tetrazolium salt 3-(4,5-dimethylthiazol-2-yl)-5-(3-carboxymethoxyphenyl)-2-(4-sulfophenyl)-2H-tetrazolium (MTS) is added to each well at a concentration of 200 μg/mL. After incubation at 37° C. for 4 hrs, absorbance at 490 nm is measured using a Bio-Rad 3550 microplate reader. The validity of this assay is tested in two ways; 1) preadipocytes were plated at 250; 500; 1000; 2000; 4000 cells per well (in quadruplicate) and absorbance is measured at 490 nm; 2) after measurement at A490 nm the cells are subsequently stained with propidium iodide and direct cell counts carried out using fluorescence microscopy.
Preadipocytes were isolated and plated in 96-well plates at 500 cells/well (sub-confluent) in serum containing medium for 12-18 hrs to allow adherence. Cells were then incubated in SCM+growth factors at 1 ng/mL for 48 hrs and a MTS proliferation assay (Promega) was performed.

[6] = test system: FGF-1-induced differentiation of human subcutaneous preadipocytes; assay: PLC inhibition of FGF-1-induced differentiation (G3PDH activity); settings: inhibitor present during replication phase, differentiation phase or both, SFM including rosiglitazone
Protocol: Human subcutaneous preadipocytes were isolated and subcultured in SCM in the presence and absence of FGF-1 with and without the PLC inhibitor U-73122 (Calbiochem). Cells were then allowed to reach confluence and differentiated using the standard chemically-modified SFM including rosiglitazone in the presence and absence of FGF1 with and without U-73122. Differentiation was assessed by G3PDH activity.

| Molecule | PLCγ2 protein expression in human preadipocytes [1] | C/EBPα gene expression [2] | FGFR-1 gene expression [2] | FGFR-2 gene expression [2] | FGFR-3 gene expression [2] | PLCγ2 gene expression [2] | PPARγ gene expression [2] | differentiation in the presence of serum (cytoplasmic lipid accumulation) [3] | differentiation potential of preadipocytes grown with purified FGF-1 ([4]; FGF-1 present from the time of isolation, compared with absence of FGF-1 or other MVEC-derived factors, data not shown) | adipogenic effect of FGF present during replication and/or differentiation (combination treatments) [4] | preadipocyte differentiation / adipogenic effect (summary statements) [4] | differentiation of human preadipocytes after exposure to growth factor or MVEC-conditioned medium during subculture [4] | proliferation of human preadipocytes in response to growth factor [5] | preadipocyte growth and replication (summary statements) ([5]; human preadipocytes cultured with the growth factor) | FGF-1-induced differentiation in the presence of PLC inhibitor [6] |
| --- | --- | --- | --- | --- | --- | --- | --- | --- | --- | --- | --- | --- | --- | --- | --- |
| FGF-1: acidic fibroblast growth factor (aFGF), also known as FGF-1 | increased | upregulation | Up-regulation | Up-regulation | down-regulation | Increased expression | upregulation | significant differentiation | similar, but not additive, increase in differentiation potential | adipogenic if present either during replication or during differentiation; also recorded: greater adipogenic effect than FGF-2 | significant positive effect on the differentiation; also recorded: dramatically increases potential for subsequent differentiation | more pronounced effect than FGF-2; also recorded: marked increase in differentiation | marked increase in proliferation | markedly promoted their growth and replication; also recorded: promotes human preadipocyte replication |  |
| FGF-2: basic FGF (also known as FGF-2) |  |  |  |  |  |  |  |  |  | adipogenic if present either during replication or during differentiation | pro-adipogenic effect | greater that the effect seen with IGF-1; also recorded: marked increase in differentiation | marked increase in proliferation |  |  |
| COc1ccc2c(c1)CC[C@@H]1[C@@H]2CC[C@]2(C)[C@@H](NCCCCCCN3C(=O)C=CC3=O)CC[C@@H]12 [U-73122] |  |  |  |  |  |  |  |  |  |  |  |  |  |  | significantly impaired |

From patent US20140221455A1, “DIFFERENTIATION MODULATING AGENTS AND USES THEREFOR” (Verva Pharmaceuticals, Inc., priority 2002, published 2014)
